Reference: PubChem BioAssay (NCI)
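Protocol summary: plate cells (96-well), add compound at 5 concentrations, incubate 48 h, interpolate endpoints linearly. Here, GI50 denotes the concentration required for 50% inhibition of growth. Definition used: TGI = concentration required for complete inhibition of growth.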 *1 amine or outer side, *2 acyl side, *3 side chain or, on linkers, in order; H or OH if unused. Where a SMILES comes first, the peptide text is derived from it. [ ]: non-standard residue; d: D form. The star is where a group is joined. ξ: configuration not given here. X15 = CCN(CC)c1ccc2cc(N*)c(=O)oc2c1; dIva = CC[C@@](C)(N)C(=O)O; X14 = O=C(OCCN[*:1])[*:2]; Aib = CC(C)(N)C(=O)O; ξP = O=C(O)C1CCCN1; βAla = NCCC(=O)O

Tests used:
Test in all cases: inhibition of tumour cell growth, NCI panel, 48 h
HCT-15 colon = system: HCT-15 colon
NCI-H522 lung = system: NCI-H522 lung
HS 578T breast = system: HS 578T breast
EKVX NSCLC = system: EKVX NSCLC
NCI-H460 lung = system: NCI-H460 lung
ACHN renal = system: ACHN renal
U251 CNS = system: U251 CNS
LOX IMVI melanoma = system: LOX IMVI melanoma
CCRF-CEM leukemia = system: CCRF-CEM leukemia
K-562 leukemia = system: K-562 leukemia

| SMILES | GI50 (HCT-15 colon) | TGI (HCT-15 colon) | GI50 (NCI-H522 lung) | TGI (NCI-H522 lung) | GI50 (HS 578T breast) | TGI (HS 578T breast) | GI50 (EKVX NSCLC) | TGI (EKVX NSCLC) | GI50 (NCI-H460 lung) | TGI (NCI-H460 lung) | GI50 (ACHN renal) | TGI (ACHN renal) | GI50 (U251 CNS) | TGI (U251 CNS) | GI50 (LOX IMVI melanoma) | TGI (LOX IMVI melanoma) | GI50 (CCRF-CEM leukemia) | TGI (CCRF-CEM leukemia) | GI50 (K-562 leukemia) | TGI (K-562 leukemia) |
| --- | --- | --- | --- | --- | --- | --- | --- | --- | --- | --- | --- | --- | --- | --- | --- | --- | --- | --- | --- | --- |
| O=C(N/N=C/c1cc([N+](=O)[O-])ccc1O)c1cccc2ccccc12 | 2.55 µM | > 100 µM | 3.47 µM | 22 µM | 12.8 µM | > 100 µM | 3.8 µM | 29.7 µM | 2.75 µM | > 100 µM | 3.08 µM | 44.7 µM | 2460 nM | 64.1 µM | 2020 nM | 53.4 µM | 905 nM | 38.6 µM | 3.26 µM | > 100 µM |
| O=C(OCCBr)c1ccc(Cl)c([N+](=O)[O-])c1 | 16.3 µM | 32.4 µM | 0.957 µM | 3.04 µM | 3.13 µM | > 26.4 µM | 18.4 µM | 37.1 µM | 14.9 µM | 33.5 µM | 18.8 µM | 34.4 µM | 1710 nM | 3.2 µM | 10200 nM | 26 µM | 15600 nM | 38.7 µM | 3.15 µM | 13.2 µM |
| CCNCCNc1cc(C2CCCCC2)c(C#N)c2nc3ccccc3n12 | 1.69 µM | 3.46 µM | 2.05 µM | 4.4 µM | 2.4 µM | 5.42 µM | 2.18 µM | 6.84 µM | 1.78 µM | 3.28 µM | 1.79 µM | 3.86 µM | 1480 nM | 3.42 µM | 568 nM | 2.08 µM | 1300 nM | 3.28 µM | 1.35 µM | 4.39 µM |
| CCCc1cc(=O)n2c(C(=O)Nc3ccccc3OC)c(C(=O)Nc3ccc(F)cc3)sc2n1 | 72 µM | > 160 µM | 17.7 µM | 68 µM | 6.27 µM | 25.6 µM | 30.7 µM | > 160 µM | 39.8 µM | > 160 µM | 5.11 µM | 18.7 µM | 5880 nM | 21.5 µM | 5180 nM | 38.1 µM | 24700 nM | 59 µM | 4.64 µM | 33.1 µM |
| c1ccc(CSc2nnc3c4ccccc4c4ccccc4c3n2)cc1 |  | > 100 µM |  | 97.9 µM |  | > 100 µM |  | > 100 µM |  | > 100 µM |  | > 100 µM |  | > 100 µM |  | > 100 µM |  | 72.5 µM |  | > 100 µM |
| CCN(CC)c1ccc2cc(NC(=O)OCCNC(=O)CCNC(=O)[C@H](CC(C)C)NC(=O)C(C)(C)NC(=O)C(C)(C)NC(=O)[C@H](CC(C)C)NC(=O)CCNC(=O)C(C)(C)NC(=O)[C@H](CC(C)C)NC(=O)CCNC(=O)[C@@](C)(CC)NC(=O)[C@H](C)NC(=O)CCNC(=O)C(C)(C)NC(=O)[C@H](C)NC(=O)[C@@H]3CCCN3C(=O)[C@@](C)(CC)NC(=O)[C@H](Cc3ccccc3)NC(=O)C3CCCN3C(=O)C(C)(C)NC(=O)C3CCCN3C(=O)C(C)(C)NC(C)=O)c(=O)oc2c1 (some centres not stated) (Ac-[Aib][ξP][Aib][ξP]F[dIva]PA[Aib][βAla]A[dIva][βAla]L[Aib][βAla]L[Aib][Aib]L[βAla][X14]-X15) | 0.135 µM | 0.278 µM | 0.00305 µM | 0.0124 µM | 0.0045 µM | 0.0548 µM | 0.00421 µM | 0.0241 µM | 0.00348 µM | 0.0138 µM | 0.0406 µM | 0.16 µM | 3.17 nM | 0.0162 µM | 1.92 nM | 0.00384 µM | 4.65 nM | 0.0287 µM | 0.00417 µM | 0.0237 µM |
| Cc1c(Cl)cccc1NC1=C(Cl)C(=O)N(Cc2ccccc2)C1=O | 4.37 µM | 18 µM | 17 µM | > 100 µM | 10.9 µM | 24.8 µM |  |  | 11 µM | 30.2 µM | 1.29 µM | 8.92 µM | 6240 nM | 20.1 µM | 4830 nM | 47.8 µM | 392 nM | 12.5 µM | 4.25 µM | 16.9 µM |
| Nc1c(C(=O)Nc2ccccc2)sc2nc3c(cc12)CN(Cc1ccccc1)CC3 | 24.7 µM | > 100 µM | 32.5 µM | > 100 µM | 2.07 µM | 7.55 µM |  |  | 7.51 µM | > 100 µM | 5.5 µM | > 100 µM | 13900 nM | > 100 µM | 10500 nM | > 100 µM | 50300 nM | > 100 µM | 9.1 µM | > 100 µM |
| COc1cc(C(=O)/C=C/c2cccnc2Nc2ccccc2)cc(OC)c1OC | 0.744 µM | 2.4 µM | 0.493 µM | 1.76 µM | 2.15 µM | 7.93 µM | 1.61 µM | 3.04 µM | 1.8 µM | 3.63 µM | 1.28 µM | 2.57 µM | 1120 nM | 2.39 µM | 499 nM | 1.82 µM | 321 nM | 1.19 µM |  |  |
| COCCNc1cc(NC(=O)N2CCCc3cc(CN4CCN(C)CC4=O)c(C=O)nc32)ncc1C#N | 33.1 µM | > 50 µM | > 50 µM | > 50 µM | 23.7 µM | > 50 µM | > 50 µM | > 50 µM | > 50 µM | > 50 µM | 23 µM | > 50 µM | > 50000 nM | > 50 µM | > 50000 nM | > 50 µM | > 50000 nM | > 50 µM |  |  |
| FC(F)(F)c1ccc(-c2cnc(Cl)nc2NCc2cc(C(F)(F)F)cc(C(F)(F)F)c2)cc1 | 3.48 µM | > 100 µM | 2.69 µM | 9.86 µM | 3.03 µM | > 100 µM |  |  | 3.16 µM | > 100 µM | 3.28 µM | > 100 µM | 2810 nM | > 100 µM | 2740 nM | > 100 µM | 3820 nM | > 100 µM | 3.77 µM | > 100 µM |
| Clc1nc(Cl)c(-c2ccccc2)c(Cl)n1 |  | 5.01 µM |  | 3.24 µM |  | > 100 µM |  | 3.46 µM |  | 35.9 µM |  |  |  | 10 µM |  | 3.73 µM |  | 8.28 µM |  | > 35 µM |
| CC(=O)O[C@H]1CC[C@@]2(C)[C@@H](CC[C@@H]3[C@@H]2CC[C@]2(C)C=C(C=O)C[C@@H]32)C1 | 2.26 µM | 12.1 µM | 21.1 µM | 45.6 µM | 4.41 µM | 50.1 µM |  |  | 20.6 µM | 42.4 µM | 20.2 µM | 60.8 µM | 2020 nM | 4.9 µM | 1750 nM | 3.54 µM | 2480 nM | 6.75 µM | 3.74 µM | 16.5 µM |
